The assay concerns the target T1, HSP90α (Homo sapiens, UniProt P07900).
T1 construct: purchased Stressgen Lot B506492
The assay can be described thus: HSP90 binding assay (fluorescent ELISA, competition with biotinylated Geldanamycin). The settings on record: reported as range of IC50's. How it is done: The biochemical assay is described as follows.
Purified HSP90α […] was purchased from Stressgen Lot B506492. Single use aliquots of the 1.15 mg/ml stock were prepared and stored at −80° C. to avoid multiple freeze-thaw cycles.
A Nunc Maxisorb plate was coated overnight at 4° C. with 200 ng of HSP90/well dissolved in DPBS. The following day the plates were washed with TBST and blocked for 2 h at room temperature with blocking buffer (20 mM HEPES pH 7.3, 1 mM EDTA, 5 mM MgCl2, 100 mM KCl, 5% BSA). Blocking buffer was removed by washing plates with TBST, and test compounds dissolved in assay buffer (20 mM HEPES pH 7.3, 1 mM EDTA, 5 mM MgCl2, 100 mM KCl, 1% BSA) were added to plate. […] The reaction is incubated for 60 minutes at room temperature. […] Competitive inhibitory compounds will block this interaction from occurring.
The reactions were stopped by washing the plate with TBST. The binding of the bio-GM is detected by the addition of an Alkaline Phosphatase tagged Streptavidin molecule. A TBST wash eliminates any unbound detection agent, and the Alkaline Phosphate substrate Attophos is introduced. This substrate generates a fluorescent signal at […] when excited at […]. These plates can be monitored on either a Victor 5 or Perkin Elmer Envision multilabel reader.
A general note: ELISA stands for enzyme-linked immunosorbent assay.

pIC50: −log10 of the molar value.

On to `CCCCn1nnnc1-c1cc(-c2cccc(C(=O)NC(C)CN(C)C)c2)c(O)cc1O` (centres unmarked) [Compound 60, 5′-(1-Butyl-1H-tetrazol-5-yl)-2′,4′-dihydroxy-biphenyl-3-carboxylic acid (2-dimethylamino-1-methyl-ethyl)-amide], for which the negative logarithm of the IC50 (pIC50) is less than 4.30. To `CCN1CCC(n2nnnc2-c2cc(-c3cc(C(C)C)ccc3OC)c(O)cc2O)CC1` [Compound 38] belongs 5.00 to 6.00; to `COCCCn1nnnc1-c1cc(-c2cccc(C(C)C)c2)c(O)cc1O` [Compound 76, 3′-Isopropyl-5-[1-(3-methoxy-propyl)-1H-tetrazol-5-yl]-biphenyl-2,4-diol], 4.30 to 5.00.

`COCCCn1nnnc1-c1cc(Br)c(O)cc1O` [Compound 25] had a pIC50 of less than 4.30. To `COCCn1nnnc1-c1cc(-c2cccc(OC(F)(F)F)c2)c(O)cc1O` [Compound 11] belongs less than 4.30; to “5-[1-(3,3-Dimethyl-butyl)-1H-tetrazol-5-yl]-5′-isopropyl-2′-methoxy-biphenyl-2,4-diol [Compound 96]”, 5.00 to 6.00; to `COCCn1nnnc1-c1cc(-c2cccc(C(F)(F)F)c2)c(O)cc1O` [Compound 12], less than 4.30. With `COCCn1nnnc1-c1cc(-c2cc(C(F)(F)F)ccc2F)c(O)cc1O` [Compound 10, 2′-Fluoro-5-[1-(2-methoxy-ethyl)-1H-tetrazol-5-yl]-5′-trifluoromethyl-biphenyl-2,4-diol] the figure was less than 4.30. To `CCCCn1nnnc1-c1cc(-c2cccc(C(=O)NCCC3CCCN3C)c2)c(O)cc1O` (centres unmarked) [Compound 59] belongs less than 4.30. The molecule `CCCCn1nnnc1-c1cc(-c2cccc(C(=O)NCCN(C)C)c2)c(O)cc1O` [Compound 58] gave a pIC50 of less than 4.30.

For the molecule `COCCCn1nnnc1-c1cc(-c2cccc(C(=O)O)c2)c(O)cc1O` [Compound 47], the pIC50 was less than 4.30.

Consider `CCCCn1nnnc1-c1cc(-c2cccc(C(=O)N(CCO)CC(C)CC)c2)c(O)cc1O` (centres unmarked) [Compound 61], for which the pIC50 is less than 4.30.

As for `COCCCn1nnnc1-c1cc(-c2cccc(OC(F)(F)F)c2)c(O)cc1O` [Compound 17], the negative-log IC50 (pIC50) is 5.00 to 6.00.

Regarding `COCCCn1nnnc1-c1cc(-c2cccc(C(=O)N3CCN(CC4CCN(C)CC4)CC3)c2)c(O)cc1O` [Compound 69], the pIC50 is less than 4.30.

On to `COc1ccc(C(C)C)cc1-c1cc(-c2nnnn2C2CCN(C(=O)OC(C)(C)C)CC2)c(O)cc1O` [Compound 43], for which the pIC50 was 4.30 to 5.00. With `COCCCn1nnnc1-c1cc(-c2cccc(C(=O)N3CCN(CCN4CCCC4)CC3)c2)c(O)cc1O` [Compound 72, {2′,4′-Dihydroxy-5′-[1-(3-methoxy-propyl)-1H-tetrazol-5-yl]-biphenyl-3-yl}-[4-(2-pyrrolidin-1-yl-ethyl)-piperazin-1-yl]-methanone] the figure was less than 4.30; with `COc1ccc(C(C)C)cc1-c1cc(-c2nnnn2C2CCN(C(=O)OC(C)(C)C)C2)c(O)cc1O` (centres unmarked) [Compound 42, 3-[5-(4,6-Dihydroxy-5′-isopropyl-2′-methoxy-biphenyl-3-yl)-tetrazol-1-yl]-pyrrolidine-1-carboxylic Acid Tert-Butyl Ester], 4.30 to 5.00. With `COCCCn1nnnc1-c1cc(-c2cccc(C(=O)NC(C)CN(C)C)c2)c(O)cc1O` (centres unmarked) [Compound 70, 2′,4′-Dihydroxy-5′-[1-(3-methoxy-propyl)-1H-tetrazol-5-yl]-biphenyl-3-carboxylic acid (2-dimethylamino-1-methyl-ethyl)-amide] the figure was less than 4.30; with `COc1ccc(C(C)C)cc1-c1cc(-c2nnnn2-c2ccccc2)c(O)cc1O` [Compound 120], greater than 6.00; with `COCCCn1nnnc1-c1cc(-c2cccc(C)c2)c(O)cc1O` [Compound 8, 5-[1-(3-Methoxy-propyl)-1H-tetrazol-5-yl]-3′-methyl-biphenyl-2,4-diol], 4.30 to 5.00. Consider `CCCCn1nnnc1-c1cc(-c2cccc(C(=O)NC(C)COC)c2)c(O)cc1O` (centres unmarked) [Compound 48, 5′-(1-Butyl-1H-tetrazol-5-yl)-2′,4′-dihydroxy-biphenyl-3-carboxylic acid (2-methoxy-1-methyl-ethyl)-amide], for which the negative logarithm of the IC50 (pIC50) is less than 4.30. With `CCCCn1nnnc1-c1cc(-c2cccc(C(=O)NCCCN3CCCC3)c2)c(O)cc1O` [Compound 55] the figure was less than 4.30; with `COCCCn1nnnc1-c1cc(-c2cccc(C(=O)N(C)CCN(C)C)c2)c(O)cc1O` [Compound 63], less than 4.30. To `CCCCn1nnnc1-c1cc(-c2cccc(C(=O)N3CCCC(C(=O)N(CC)CC)C3)c2)c(O)cc1O` (centres unmarked) [Compound 51] belongs less than 4.30. With `CCNC(=O)N1CCC(n2nnnc2-c2cc(-c3cc(C(C)C)ccc3OC)c(O)cc2O)CC1` [Compound 39] the figure was 5.00 to 6.00; with `CCc1ccccc1-c1cc(-c2nnnn2CCCOC)c(O)cc1O` [Compound 75, 2′-Ethyl-5-[1-(3-methoxy-propyl)-1H-tetrazol-5-yl]-biphenyl-2,4-diol], less than 4.30; with `COCCCn1nnnc1-c1cc(-c2ccc(OC(F)(F)F)cc2)c(O)cc1O` [Compound 73], less than 4.30.

With `COCCCn1nnnc1-c1cc(-c2cccc(C(=O)N(C)CCCN(C)C)c2)c(O)cc1O` [Compound 64, 2′,4′-Dihydroxy-5′-[1-(3-methoxy-propyl)-1H-tetrazol-5-yl]-biphenyl-3-carboxylic Acid (3-dimethylamino-propyl)-methyl-amide], the pIC50 is less than 4.30. With `COCCCn1nnnc1-c1cc(-c2ccccc2C(F)(F)F)c(O)cc1O` [Compound 13, 5-[1-(3-Methoxy-propyl)-1H-tetrazol-5-yl]-2′-trifluoromethyl-biphenyl-2,4-diol] the figure was less than 4.30; with `COCCCn1nnnc1-c1cc(-c2ccc(Oc3ccccc3)cc2)c(O)cc1O` [Compound 74, 5-[1-(3-Methoxy-propyl)-1H-tetrazol-5-yl]-4′-phenoxy-biphenyl-2,4-diol], less than 4.30; with `COCCCn1nnnc1-c1cc(-c2cccc(C(=O)NC(C)COC)c2)c(O)cc1O` (centres unmarked) [Compound 62], less than 4.30.

`COCCCn1nnnc1-c1cc(-c2ccc(C(F)(F)F)cc2)c(O)cc1O` [Compound 18, 5-[1-(3-methoxy-propyl)-1H-tetrazol-5-yl]-4′-trifluoromethyl-biphenyl-2,4-diol]: the negative logarithm of the IC50 (pIC50) is less than 4.30. To `COCCn1nnnc1-c1cc(-c2cc(C(C)C)ccc2OC)c(O)cc1O` [Compound 9] belongs 5.00 to 6.00; to `CCOc1cccc(-c2cc(-c3nnnn3CCCOC)c(O)cc2O)c1` [Compound 77, 3′-Ethoxy-5-[1-(3-methoxy-propyl)-1H-tetrazol-5-yl]-biphenyl-2,4-diol], 4.30 to 5.00; to `CCCCn1nnnc1-c1cc(-c2cccc(C(=O)NCCCN3CCOCC3)c2)c(O)cc1O` [Compound 54], less than 4.30.

`CCCCn1nnnc1-c1cc(-c2cccc(C(=O)O)c2)c(O)cc1O` [Compound 46] gave a pIC50 of less than 4.30. To `CCCCn1nnnc1-c1cc(-c2cccc(C(=O)N3CCC(N4CCCC4)CC3)c2)c(O)cc1O` [Compound 49, [5′-(1-Butyl-1H-tetrazol-5-yl)-2′,4′-dihydroxy-biphenyl-3-yl]-(4-pyrrolidin-1-yl-piperidin-1-yl)-methanone] belongs less than 4.30; to `CCCCn1nnnc1-c1cc(-c2cccc(C(=O)N3CCN(CCCN4CCOCC4)CC3)c2)c(O)cc1O` [Compound 56, [5′-(1-Butyl-1H-tetrazol-5-yl)-2′,4′-dihydroxy-biphenyl-3-yl]-[4-(3-morpholin-4-ylpropyl)-piperazin-1-yl]-methanone], less than 4.30; to `CCCCn1nnnc1-c1cc(-c2cccc(C(=O)N3CCN(S(=O)(=O)CC)CC3)c2)c(O)cc1O` [Compound 53, [5′-(1-Butyl-1H-tetrazol-5-yl)-2′,4′-dihydroxy-biphenyl-3-yl]-(4-ethanesulfonyl-piperazin-1-yl)-methanone], less than 4.30. To `COc1ccc(C(C)C)cc1-c1cc(-c2nnnn2C2CCNCC2)c(O)cc1O` [Compound 41] belongs 5.00 to 6.00.

In turn, `COc1ccc(C(C)C)cc1-c1cc(-c2nnnn2C2CCN(C(=O)CC(C)C)CC2)c(O)cc1O` [Compound 40, 1-{4-[5-(4,6-Dihydroxy-5′-isopropyl-2′-methoxy-biphenyl-3-yl)-tetrazol-1yl]-piperidin-1-yl}-3-methyl-butan-1-one] had a pIC50 of 4.30 to 5.00. To `CCCCn1nnnc1-c1cc(-c2cccc(C(=O)NCCc3cccc(OC)c3)c2)c(O)cc1O` [Compound 57] belongs less than 4.30; to `CCS(=O)(=O)N1CCN(C(=O)c2cccc(-c3cc(-c4nnnn4CCCOC)c(O)cc3O)c2)CC1` [Compound 66, {2′,4′-Dihydroxy-5′-[1-(3-methoxy-propyl)-1H-tetrazol-5-yl]-biphenyl-3-yl}-(4-ethanesulfonyl-piperazin-1-yl)-methanone], less than 4.30. To “4-[1-(3-Methoxy-propyl)-1H-tetrazol-5-yl]-6-naphthalen-2-yl-benzene-1,3-diol [Compound 78]” belongs 4.30 to 5.00; to `COCCCn1nnnc1-c1cc(-c2cccc(C(=O)OC)c2)c(O)cc1O` [Compound 21], 4.30 to 5.00; to `COCCCn1nnnc1-c1cc(-c2cccc(C(=O)NCCCN(C)C)c2)c(O)cc1O` [Compound 65], less than 4.30.

With `CCC(C)CN(CCO)C(=O)c1cccc(-c2cc(-c3nnnn3CCCOC)c(O)cc2O)c1` (centres unmarked) [Compound 71], the pIC50 is less than 4.30.

The pIC50 is −log10 of the IC50, conventionally taken in molar units. Low values mean a high IC50, high ones a low IC50.

These data come from patent US7932279B2 (ArQule, Inc., priority 2007, dated 2011).
